# Experimental data: BindingDB's records for patent US10377770 (Novartis, 2019)
# Target: RAF proto-oncogene serine/threonine-protein kinase [Y340E,Y341E] (Human, UniProt P04049, Y340E/Y341E)
# Experiment: Biological Assays
# Text: The activity of a compound according to the present invention can be assessed by well-known in vitro & in vivo methods. […] CRAF cDNA was subcloned as full length protein, with Y340E and Y341E activating mutations, into a baculovirus expression vector for Sf9 insect cell expression. h14-3-3 zeta cDNA was subcloned into a baculovirus expression vector for SF9 insect cell expression. Sf9 cells co-expressing both proteins were lysed and subjected to immobilized nickel chromatography and eluted with Imidazole. A second column (StrepII binding column) was used and eluted with desthiobiotin. Protein Tags were removed using Prescission enzyme and the protein was further purified using a flowthrough step to remove tags.C-Raf TR refers to a truncated C-Raf protein, a Δ1-324 deletion mutant. C-Raf FL refers to the full-length C-Raf protein.Full length MEK1 with an inactivating K97R ATP binding site mutation is utilized as a RAF substrate. The MEK1 cDNA was subcloned with an N-terminal (his)6 tag into a vector for E. Coli expression. The MEK1 substrate was purified from E. Coli lysate by nickel affinity chromatography followed by anion exchange. The final MEK1 preparation was biotinylated (Pierce EZ-Link Sulfo-NHS-LC-Biotin) and concentrated.Assay Materials: Assay buffer is 50 mM Tris, pH 7.5, 15 mM MgCl2, 0.01% Bovine Serum Albumin (BSA) and 1 mM dithiothreitol (DTT); Stop buffer is 60 mM ethylenediaminetetraacetic acid (EDTA) and 0.01% Tween 20; b-Raf (V600E), active; biotinylated Mek, kinase dead; Alpha Screen detection kit (available from PerkinElmer , #6760617R); Anti phospho-MEK1/2 (available from Cell Signaling Technology, Inc. #9121); 384 well low volume assay plates (White Greiner plates).Assay conditions: b-Raf (V600E) approximately 4 pM; c-Raf approximately 4 nM; biotinylated Mek, kinase dead approximately 10 nM; ATP 10 μM for BRAF (V600E) and 1 μM for CRAF; Pre-incubation time with compounds 60 minutes at room temperature; Reaction time 1 or 3 hours at room temperature.Assay protocol: Raf and biotinylated Mek (kinase dead) were combined at 2× final concentrations in assay buffer (50 mM Tris, pH 7.5, 15 mM MgCl2, 0.01% BSA and 1 mM DTT) and dispensed […] per well in assay plates (Greiner white 384 well assay plates #781207) containing […] of 40× of a Raf kinase inhibitor test compound diluted in 100% DMSO. The plate was incubated for 60 minutes at room temperature. The Raf kinase activity reaction was started by the addition of […] per well of 2×ATP diluted in assay buffer. After 3 hours (b-Raf(V600E)) or 1 hour (c-Raf). The reactions were stopped and the phosphorylated product was measured using a rabbit anti-p-MEK (Cell Signaling, #9121) antibody and the Alpha Screen IgG (ProteinA) detection Kit (PerkinElmer #6760617R), by the addition of […] to the well of a mixture of the antibody (1:2000 dilution) and detection beads (1:2000 dilution of both beads) in Stop/bead buffer (25 mM EDTA, 50 mM Tris, pH 7.5, 0.01% Tween20). The additions were carried out under dark conditions to protect the detection beads from light. A lid was placed on top of the plate and incubated for 1 hour at room temperature, after which the luminescence was read on a PerkinElmer Envision instrument.
# Chain of RAF proto-oncogene serine/threonine-protein kinase [Y340E,Y341E] (P04049 whole entry Y340E/Y341E): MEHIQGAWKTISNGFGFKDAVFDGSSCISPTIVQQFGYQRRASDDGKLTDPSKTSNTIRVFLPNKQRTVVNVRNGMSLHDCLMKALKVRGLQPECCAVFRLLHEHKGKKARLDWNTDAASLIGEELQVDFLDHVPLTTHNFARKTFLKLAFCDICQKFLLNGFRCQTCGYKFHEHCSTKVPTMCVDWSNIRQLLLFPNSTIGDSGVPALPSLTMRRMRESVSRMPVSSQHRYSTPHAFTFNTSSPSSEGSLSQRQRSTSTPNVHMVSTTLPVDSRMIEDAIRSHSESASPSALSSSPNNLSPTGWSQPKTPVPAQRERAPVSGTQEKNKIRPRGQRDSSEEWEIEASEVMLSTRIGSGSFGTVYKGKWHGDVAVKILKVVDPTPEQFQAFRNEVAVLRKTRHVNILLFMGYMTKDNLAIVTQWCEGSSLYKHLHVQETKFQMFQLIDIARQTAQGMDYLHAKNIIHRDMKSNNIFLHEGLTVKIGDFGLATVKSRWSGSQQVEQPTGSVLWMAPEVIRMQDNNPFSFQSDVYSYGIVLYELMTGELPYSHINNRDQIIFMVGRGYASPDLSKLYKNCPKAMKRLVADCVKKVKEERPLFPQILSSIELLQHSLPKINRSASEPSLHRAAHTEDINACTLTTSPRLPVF
row,SMILES,IC50 [nM]
1,"Cc1ccc(NC(=O)c2ccnc(C(C)(F)F)c2)cc1-c1cnc2c(c1)C1CCOCCC1C(=O)N2CCO (centres undefined) [US10377770, Example 286]",< 0.1
2,"Cc1ccc(NC(=O)c2cccc(C(F)(F)F)n2)cc1-c1ccc2c(c1)N1CCOC[C@H]1[C@](F)(CO)C2 [US10377770, Example 389]",0.5
3,"CCN1C(=O)[C@@H]2COCC[C@H]2c2cc(-c3cc(NC(=O)c4cnnc(C(F)(F)F)c4)ccc3C)cnc21 [US10377770, Example 257]",< 0.1
4,"CCN1C(=O)[C@H]2COCCN2c2cc(-c3cc(NC(=O)c4ccnc(C(F)(F)F)c4)ccc3C)nnc21 [US10377770, Example 134]",0.016
5,"Cc1ccc(NC(=O)c2ccnc(C(F)(F)F)c2)cc1-c1cnc2c(c1)C1CCOCCC1C(=O)N2CCO (centres undefined) [US10377770, Example 284]",< 0.1
6,"Cc1ccc(NC(=O)c2ccnc(C(F)(F)F)c2)cc1-c1ccc2c(c1)N1CCOC[C@@H]1[C@@](CO)(CF)C2 [US10377770, Example 405]",0.2
7,"Cc1ccc(NC(=O)c2ccnc(C(F)(F)F)c2)cc1-c1cnc2c(c1)[C@@H]1CCOC[C@H]1C(=O)N2CCO [US10377770, Example 258]",< 0.1
8,"Cc1ccc(NC(=O)c2ccnc(C(C)(F)F)c2)cc1-c1cnc2c(c1)[C@@H]1CCOC[C@H]1C(=O)N2CCO [US10377770, Example 267]",< 0.1
9,"CCN1C(=O)OC2COCCC2c2cc(-c3cc(NC(=O)c4cnnc(C(F)(F)F)c4)ccc3C)cnc21 (centres undefined) [US10377770, Example 301]",< 0.1
10,"CCN1C(=O)OC2COCCC2c2cc(-c3cc(NC(=O)c4ccnc(C(F)(F)F)c4)ccc3C)cnc21 (centres undefined) [US10377770, Example 297]",0.9
11,"CCN1C(=O)[C@@H]2COCCN2c2cc(-c3cc(NC(=O)c4ccnc(C(F)(F)F)c4)ccc3C)nnc21 [US10377770, Example 133]",0.011
12,"Cc1ccc(NC(=O)c2ccnc(C(F)(F)F)n2)cc1-c1ccc2c(c1)N1CCOC[C@H]1[C@](F)(CO)C2 [US10377770, Example 388]",0.4
13,"Cc1ccc(NC(=O)c2ccnc(C(F)(F)F)c2)cc1-c1cnc2c(c1)N1CCOC[C@H]1CC(=O)N2CCO [US10377770, Example 333]",< 0.1
14,"Cc1ccc(NC(=O)c2ccnc(C(F)(F)F)c2)cc1-c1cnc2c(c1)N1CCOCC1C1(COC1)C2 (racemic) [US10377770, Example 153]",0.005
